The data set can be described thus: Stability of lorazepam with ODT excipients and coatings.

Regarding `O=C1Nc2ccc(Cl)cc2C(c2ccccc2Cl)=NC1O` (centres unmarked) [lorazepam, 7-chloro-5-(2-chlorophenyl)-1,3-dihydro-3-hydroxy-2H-1,4-benzodiazepin-2-one], the stability when coated entry (lorazepam coated with EUDRAGIT® E-100) is reported as “unstable”. Further, the “stability with ODT excipients” value (with mannitol and super disintegrants such as crosslinked PVP) is recorded as “unstable”.

The record behind these values is US20080031944A1, “Stabilization of lorazepam” (CIMA LABS INC., priority 2006, published 2008).
